Laboratory results published in patent US20240269278A1, “ANTI-CD47 ANTIBODY FOR COMBINED TREATMENT OF BLOOD TUMOR” (Nanjing Shunxin Pharmaceuticals Co., Ltd. of Chiatai …, priority 2021, published 2024).

Experiments:
[1] = tested on: human acute myeloblastic leukemia MOLM-16; assay: Subcutaneous mouse xenograft tumor of MOLM-16; type: in vivo
Protocol: The experimental animals were NOD-SCID mice (5-6 weeks old, female) purchased from Beijing Huafukang Biotechnology Co., Ltd., with the production license number of SCXK (Jing) 2019-0008 and the animal certification number of 110322211100910838. The housing environment was in a SPF grade. Human acute myelocytic leukemia MOLM-16 cells were purchased from DSMZ. MOLM-16 cells were cultured in an incubator at 37° C. with 5% CO2 in air. Subculturing was performed twice a week, and when the cells were in a logarithmic growth phase, the cells were collected, counted, and inoculated. 1×10^7 MOLM-16 cells were inoculated to each mouse subcutaneously, and when tumors reached the volume of 100-150 mm^3, the mice were divided into groups and injected with drugs intravenously (IV) at the administration volume of 0.1 mL/10 g of body weight.
(§1) The experimental index was to investigate the effects of the drugs on the tumor growth, and the specific index was T/C % or the tumor growth inhibition rate (TGI %, tumor growth inhibition).
(§2) Tumor diameters were measured twice a week with a vernier caliper and tumor volume (V) was calculated according to the following formula: […]
(§3) where a and b represent length and width, respectively.
(§4) T/C (%)=(T−T0)/(C−C0)×100,
(§5) where T and C are the tumor volumes of animals at the end of the experiment in the test group and the negative control group, respectively; T0 and C0 are the tumor volumes of animals at the beginning of the experiment in the test group and the negative control group, respectively.
(§6) If the volume of tumor shrinks compared with its initial volume, i.e., T<T0 […], it is defined as partial regression (PR) of tumor; if the tumor completely disappears, it is defined as complete regression (CR) of tumor.
At the end of the experiment, the animals were sacrificed by CO2 anesthesia and dissected to give the tumors. The tumors were photographed.

HL60 cells = assay: Promotion of macrophage phagocytosis of tumor cells (flow cytometry); type: cell-based; conditions: CFSE-labeled HL60 cells, human macrophages
Protocol: The ability of the anti-CD47 antibodies to promote the phagocytosis of tumor cells by macrophages having SIRPα on the cell surface was determined based on flow cytometry.
Monocytes were isolated from human peripheral blood mononuclear cells (PBMC, Sailybio, Cat. No. 190056) using a monocyte isolation kit ([…], Cat. No. 19058), plated into a 24-well plate (Greiner bio-one, Cat. No. 662-160) at […] cells per well, and induced under 100 ng/mL stimulating factor M-CSF (R&D Systems, Cat. No. 216-MC-010) for 7 days to form macrophages. 1×10^6 target cells HL60 (Shanghai Institute of Biochemistry and Cell Biology, Chinese Academy of Sciences, Cat. No. TCHu23) were suspended in […] CFSE (BD Biosciences, Cat. No. 565082) fluorescent dye (diluted with a PBS buffer to the desired concentration), incubated in a water bath at 37° C. in the dark for 15 min, and washed with a PBS buffer to prepare CFSE-labeled HL60 cells, which were then incubated with each of 10 μg/mL and 1 μg/mL anti-CD47 antibodies (see Table 3 for chimenic antibodies, and see Table 4 for humanized antibodies) in an incubator at 37° C. with 5% CO2 for 1-2 h. The HL60 cells after the incubation were washed three times with a PBS buffer and added to the macrophages. […] The rate of phagocytosis (%) by the macrophages was determined using a flow cytometer (BD Biosciences, model: C6).

Raji cells = assay: Hematologic tumor mouse model of lymphoma Raji cells, survival; type: in vivo, NOD/SCID mice; conditions: 10 mg/kg intraperitoneal, 21 consecutive days
Protocol: A hematologic tumor mouse model was established using hematologic tumor Raji cells. The anti-CD47 antibodies were applied to the model for the evaluation of the pharmacodynamic activity.
A suspension of Raji cells in a PBS buffer was prepared at a concentration of 5×10^6 cells/mL, and was injected into female NOD/SCID mice via the tail vein at 0.1 mL/mouse. […] The administration was performed by intraperitoneal injection in doses of 10 mg/kg for 21 consecutive days. The survival time of the animals was observed.

[2] = tested on: human B-cell lymphoma Daudi; assay: Subcutaneous mouse xenograft tumor of Daudi; type: in vivo, NOD-SCID mice; conditions: IV D0, 3, hz14A9-2.3 1.5 mg/kg, Rituximab 3 mg/kg
Protocol: The experimental animals were NOD-SCID mice (5-6 weeks old, male) purchased from Shanghai Lingchang Biotechnology Co., Ltd., with the production license number of SCXK (Hu) 2018-0003 and the animal certification number of 20180003014870. The housing environment was in a SPF grade. Human B-cell lymphoma Daudi cells were purchased from Cell Bank of the Chinese Academy of Sciences. Daudi cells were cultured in an incubator at 37° C. with 5% CO2 in air. Subculturing was performed twice a week, and when the cells were in a logarithmic growth phase, the cells were collected, counted, and inoculated. 1×10^7 Daudi cells were inoculated to each mouse subcutaneously, and when tumors reached the volume of about 100 mm^3, the mice were divided into groups and injected with drugs intravenously (IV) once every 3 days (Q3D) for a total of 2 times at the injection volume of 0.1 mL/10 g of body weight.
as §1, §2, §3, §4, §5, §6
At the end of the experiment (D24), the animals were sacrificed by CO2 anesthesia and dissected to give the tumors. The tumors were photographed.

[3] = Azacitadine 2.5 mg/kg IV QD × 5

With `Nc1ncn([C@@H]2O[C@H](CO)[C@@H](O)[C@H]2O)c(=O)n1` [Azacitadine, 4-amino-1-β-D-ribofuranosyl-1,3,5-triazin-2(1H)-one] the “T/C(%) D12” value ([1]; Azacitadine 1 mg/kg IV QD × 5) was 50%, the “Tumor growth inhibition (%) D12” value ([1]; Azacitadine 1 mg/kg IV QD × 5) was 50% and the “T/C(%) D12” value [1, 3] was 18%. For the same compound, the “Tumor growth inhibition (%) D12” value [1, 3] was 82%, the “mean tumor volume D17” value ([1]; azacitadine 1 mg/kg IV QD×5 monotherapy) was 3729.5 ± 436.4 mm^3 and the “mean tumor volume D17” value ([1]; azacitadine 2.5 mg/kg IV QD×5 monotherapy) was 1920.7 ± 375.6 mm^3.
In the case of “Hu5F9: the positive antibody Hu5F9, comparison anti-CD47 antibody [reference compound]”, the rate of phagocytosis (HL60 cells; 1 μg/mL antibody) is reported as 67.5%, the rate of phagocytosis (HL60 cells; 10 μg/mL antibody) is reported as 72.35% and the “day on which all the animals in the group died” value (Raji cells) is reported as 30 days. It also gave a median survival time (Raji cells) of 18.5 days.
In the case of “Rituximab: anti-CD20 monoclonal antibody [reference compound]”, the “T/C(%) D24” value [2] is reported as 64%, the “Tumor growth inhibition (%) D24” value [2] is reported as 36% and the “Partial regression (number of tumors)” value ([2]; hIgG4 4.5 mg/kg, 6 mice per group (hIgG4 10)) is reported as 0.
